The values that follow come from PMC11477294, “In Vitro Profiling of the Antiviral Peptide TAT-I24” (International Journal of Molecular Sciences, 2024).

The subject of data set [1] is human red blood cells (RBCs). Description: Hemolysis assay with red blood cells. It counts as cell-based. To be noted: 1 h at 37 °C; for hemolysis of human RBCs: peptide dilutions in PBS or PBS + 10% donor serum, concentrations < 20 µM (1:2 dilutions), OD 450 nm of supernatants, n = 6; for swelling of RBCs (pellet size after centrifugation): peptide dilutions prepared in PBS, up to 20 µM. How it is done: Blood from healthy volunteers was collected by venipuncture (Greiner Bio-One, Kremsmünster, Austria) into K2E K2EDTA VacuetteTM tubes (Greiner Bio-One, Kremsmünster, Austria) with 4 mL blood. The assay for hemolysis was adapted from Sæbo et al.. Blood was centrifuged at 1000× g for 10 min, and plasma was kept for further use. Red blood cells were then resuspended in 10 mL PBS and centrifuged again at 1000× g for a total of three times. Cells were then counted using a hemocytometer and seeded at a cell number of 1 × 10^7 cells/100 µL PBS per well in conical 96-well plates (ThermoFisher, Darmstadt, Germany). Next, 1:2 peptide dilutions starting from 40 µM either in PBS or 10% donor serum were prepared, and 100 µL was added to 100 µL of RBC. Plates were then incubated for one hour at 37 °C. As the positive control, three wells with 100 µL RBCs were treated with 100 µL PBS + 0.5% Triton X-100. After incubation, plates were centrifuged at 1000× g for 5 min and supernatants were transferred to flat 96-well plates. Optical density (OD) was determined at 450 nm using a GloMax®-Multi Detection System (Promega, Mannheim, Germany). Images from RBCs from light microscopy and centrifuged plates were taken using an iPhone 12 mini.

The test system of data set [2] is MCMV strain delm157-luc rep. It counts as cell-based, mouse cytomegalovirus. To be noted: luciferase reporter gene expression in NIH/3T3 cells infected with replication-competent MCMV, MOI 0.5, 72 h post-infection; 1:3 dilution series; non-linear regression; n = 9. Here is the method:
NIH/3T3 cells were seeded at a density of 2 × 10^4 cells/100 µL per well in a 96-well plate (Sarstedt, Germany) and allowed to attach overnight. On the next day, cells were treated with a 1:3 dilutions series of peptides and, without further pre-incubation, subsequently infected with the MCMV strain delm157-luc rep. The MCMV stock was prepared and quantified as previously described. The virus (MOI 0.5 for luc assays; for other assays, see the specific descriptions) was adsorbed to cells with the aid of centrifugal enhancement twice at 800× g for 15 min at room temperature and incubated at 37 °C for the indicated times. For the luciferase assays, the infected cells were lysed 72 h post-infection using 20 µL Cell Culture Lysis Reagent (Promega, Mannheim, Germany). From the lysates, 10 µL was transferred to white 96-well plates, and luciferase was recorded using a Luciferase Assay System and a GloMax®-Multi Detection System (Promega, Mannheim, Germany).
A general note: In a reporter assay the amount or activity of a reporter protein is the signal.

Data set [3] relates to baculovirus expressing luciferase under the control of the CMV promoter. Format: cell-based. The note with it: luciferase reporter gene expression in HEK293 cells transduced with baculovirus-luc, MOI 5, 24 h post-infection; 1:3 peptide dilution series; non-linear regression; n = 8. How it is done: A baculovirus expressing luciferase under the control of the CMV promoter has been described previously. HEK293 cells were seeded at a density of 2 × 10^4 cells/100 µL per well in 96-well plates (Sarstedt, Germany). On the next day, cells were treated with a 1:3 dilution series of peptides and, without further pre-incubation, subsequently infected with baculovirus–luc at a multiplicity of infection (MOI) of 5. Cells were lysed 24 h post-infection using 20 µL Cell Culture Lysis Reagent (Promega, Mannheim, Germany). From the lysates, 10 µL was transferred to white 96-well plates, and luciferase was recorded using a luciferase assay system and a GloMax®-Multi Detection System (Promega, Mannheim, Germany).

The next data set concerns HEK293 cells. Description: Cell viability assay (CellTiter-Blue) in HEK293 cells. To be noted: 72 h at 37 °C, 3-fold dilution series starting with 20 µM, triplicate, non-linear regression (curve fit). Format: cell-based. How it is done: HEK293 cells were seeded at a density of 2.5 × 10^3 cells/100 µL per well in a 96-well plate (Sarstedt, Germany). In addition, a serial 1:2 dilution of the cell suspension was added to each plate to generate a standard curve. On the next day, cells were treated with serial 1:3 peptide dilutions in triplicate and incubated for 72 h at 37 °C. Then, 20 µL of CellTiter-Blue® Cell Viability Assay (Promega, Mannheim, Germany) was added to each well and incubated at 37 °C for a further 1–2 h. Fluorescence was recorded using a GloMax®-Multi Detection System (Promega, Mannheim, Germany). The percentage of viable cells was calculated from the cell dilution series from each plate by linear regression analysis. The selectivity index was calculated using the following formula: SI = CC50/IC50.
Figure S1. Cell viability assay in HEK293 cells in the presence of peptides. Cells were incubated with 3 -fold dilution series of peptides starting with a concentration of 20 µM for 72 hours and measured using the Cell Titer Blue assay. Curve fitting of % viable cells of untrea ted control was performed using Graph Pad Prism softwar e.
(1 picture or pasted object on this page, not shown here)
(Resazurin is reduced to fluorescent resorufin, in cell work by metabolically active cells.)

Where a SMILES comes first, the peptide text is derived from it. Bridges are numbered along the chain shown (N, C = ends).

One may read the IC50 as the concentration that gives 50% inhibition. Higher therefore signals weaker potency in that assay. With `CSCC[C@H](NC(=O)[C@H](Cc1ccccc1)NC(=O)[C@H](CCCNC(=N)N)NC(=O)[C@H](C)NC(=O)[C@H](Cc1ccc(O)cc1)NC(=O)[C@H](Cc1ccccc1)NC(=O)[C@H](C)NC(=O)[C@H](CC(C)C)NC(=O)[C@H](C)NC(=O)[C@H](CCC(N)=O)NC(=O)[C@@H]1CCCN1C(=O)[C@@H]1CCCN1C(=O)[C@H](CCCNC(=N)N)NC(=O)[C@H](CCCNC(=N)N)NC(=O)[C@H](CCCNC(=N)N)NC(=O)[C@H](CCC(N)=O)NC(=O)[C@H](CCCNC(=N)N)NC(=O)[C@H](CCCNC(=N)N)NC(=O)[C@H](CCCCN)NC(=O)[C@H](CCCCN)NC(=O)[C@H](CCCNC(=N)N)NC(=O)CN)C(=O)O` [C14A, C20R, C22M] (H-GRKKRRQRRRPPQALAFYARFM-OH), the “hemolysis of human RBCs” value in data set [1] is reported as “neither induce hemolysis”. Further, the “swelling of RBCs (pellet size after centrifugation)” value in data set [1] is given as “reduced swelling”. Besides, the 50% inhibitory concentration (IC50) is 3.59 µM in data set [2] and 0.58 µM in data set [3]. The “HEK293 CC50” value with HEK293 cells stood at 63 µM.

Consider `CC(C)C[C@@H]1NC(=O)[C@@H](NC(=O)[C@H](CCC(N)=O)NC(=O)[C@@H]2CCCN2C(=O)[C@@H]2CCCN2C(=O)[C@H](CCCNC(=N)N)NC(=O)[C@H](CCCNC(=N)N)NC(=O)[C@H](CCCNC(=N)N)NC(=O)[C@H](CCC(N)=O)NC(=O)[C@H](CCCNC(=N)N)NC(=O)[C@H](CCCNC(=N)N)NC(=O)[C@H](CCCCN)NC(=O)[C@H](CCCCN)NC(=O)[C@H](CCCNC(=N)N)NC(=O)CN)CSSC[C@@H](C(=O)N[C@@H](Cc2ccccc2)C(=O)O)NC(=O)[C@H](C)NC(=O)[C@H](Cc2ccc(O)cc2)NC(=O)[C@H](Cc2ccccc2)NC(=O)[C@H](C)NC1=O` [C22del_cyc] (H-GRKKRRQRRRPPQCLAFYACF-OH; disulfide 14-20), for which, in data set [1], the “hemolysis of human RBCs” value was “neither induce hemolysis” and the “swelling of RBCs (pellet size after centrifugation)” value was “reduced swelling”. Also, in data set [2], the half-maximal inhibitory concentration (IC50) is 12.2 µM. In data set [3], the half-inhibitory concentration (IC50) turned out to be 1.41 µM.
